Patent publication US10335417B2, “Thiazideamide derivative and use thereof” (Institute of Pharmacology and Toxicology Academy of …, priority 2015, dated 2019)

Experiments:
[1] = tested on: chick embryo dorsal root ganglion; experiment: in vitro serum-free culture model of chick embryonic dorsal root ganglion: neurite growth score with NGF; format: cell-based; conditions: for Average score (growth of neurites of chick embryo dorsal root ganglion): 48 h, score 0-3, average of five ganglions, control 0.33
Experimental: The neurotrophic activity of the compounds according to the invention can be embodied in multiple in vitro biological models, such as in vitro serum-free culture model of chick embryonic dorsal root ganglion.
Experimental method: in a sterile environment, chick embryo, which had been incubated for 8 d, had the spinal and bilateral ganglion exposed under anatomical lens. Dorsal root ganglions were picked one by one using sharp forceps, and seeded in culture bottles spread with rat tail collagen, at a density of 5-6 ganglions per bottle, and two bottles for each dose. After attachment culture in a 37° C., 5% CO2 incubator for 1 h, serum-free medium DMEM containing nerve growth factor (NGF) (0.15 ng/mL), and the compound according to the invention were added. In the control group, only the medium and the same dose of NGF were added. After culture in the incubator for 48 h, the growth of neurite around dorsal root ganglion was observed under inverted phase contrast microscope, which was scored depending on the length and density of neurite.
Evaluation criteria: 0: no neurite; 1: rare long neurite; 2: relatively long or dense neurite; 3: long and dense neurite.

[2] = tested on: BCAO-LBP mice (incomplete global cerebral ischemia); experiment: mouse BCAO-LBP model of incomplete global cerebral ischemia: cerebral MDA content and neurological function score; format: in vivo, Kunmin mice; conditions: for Neurologic deficit score / MDA content: 30 mg/kg i.g. once/d for 3 d, x ± SEM; for Neurologic deficit score: behaviour within 6 h after ligation, model group 3.92, sham 0.00; for MDA content: whole cerebrum, model group 40.94, sham 33.15; for neurologic deficit score decreased compared to the group administered with Compound 6 / neurologic deficit score decreased compared to the group administered with Compound 5: 30 mg/kg i.g., BCAO-LBP mice
Excerpt: In the Example, Kunmin mice were used as experimental subjects, intragastric (i.g.) administration was used, mouse BCAO-LBP (bilateral carotid artery occlusion with low blood pressure) model was used, and by determining neurological function score and the cerebral malondialdehyde (MDA) content in mice, the compounds were investigated for their protective effects on incomplete global cerebral ischemia in mice when administered prophylactically.
2.1.2 Preparation of a drug for intragastric administration: the compound was prepared to a 1.5 mg/ml solution using 0.7% CMC-Na solution.
28 mice, which had adapted to the laboratory environment for 1 week, were evenly grouped depending on body weight. The mice were intragastrically administered with 0.7% CMC-Na or one of the compounds, once/d, for 3 d. The groups were as followed:
Administration group: 12 mice, intragastrically administered at a dose of 0.2 ml/10 g, i.e., the dose of the compound was 30 mg/kg.
2.3.1 Mouse bilateral carotid artery ligation: 1 h after the last administration, the mice were subjected to orbital bloodletting to reduce blood pressure (which was about 30% of the total blood volume of the mice), and then fixed in supine position on the operating table, and cut in the middle of neck. Carotid artery was subjected to blunt dissection, and 2 lines were used in ligation for each side. The time counting started after the ligation with the third line, the carotid artery was cut off between the two lines, and the incision was sewn up. In the Sham-operated group, the carotid artery was only separated without ligation. After the operation, the mice were unfixed quickly, and the mice were observed and recorded for the behaviors within 6 h (scoring depending on the following table using blind method) and the death time. The brains were taken quickly after the mice died, the cerebellums were removed, and the MDA content in the whole cerebrum was determined by thiobarbituric acid (TBA).
The cerebra of mice were taken and weighed, and were prepared into 15% brain homogenate using N.S. 1.2 ml brain homogenate was placed in a 37° C. water bath for 1 h (shaking once every 10 min) and then taken out. 20% trichloroacetic acid 0.6 ml was added, and the mixture was mixed well, and was on standing for 10 min. After centrifugation at 2000 rpm for 10 min, to 1.2 ml supernatant, 0.67% TBA 0.6 ml was added. The mixture was placed in a boiling water bath for 10 min, and was taken out for cooling, and the OD value at a wavelength of 532 nm was determined.
The experimental data was expressed as x±SEM; SPSS 13.0 statistic software was used. Homogeneity or heterogeneity of variance was determined by one-factor analysis of variance. In the case of homogeneity of variance, LSD test was used; in the case of heterogeneity of variance, Dunnett's T3 test was used. Significant difference among different groups was compared, and P<0.05 indicated statistical significance.

in vitro = conditions: dog, MDCK-MDR1
Excerpt: (§1) MDCK-MDR1 cells were monolayer cells which highly express P-gp transporter after transfection of MDCK (Madin-Darby canine kidney epithelial cell) with MDR1 gene. Due to its density and high expression of efflux protein, the monolayer has similarity compared to blood-brain barrier (BBB) structure and now can be used as one of models for evaluating the ability of passing through BBB. In the invention, MDCK-MDR1 cells were used to study the membrane permeability of the compounds according to the invention, and to primarily evaluate its ability of passing through BBB.
(§2) The frozen MDCK-MDR1 cells were quickly thawed in a 37° C. water bath. To the resuscitated cells, DMEM medium containing 10% FBS was added, and the cells were cultured in an incubator at 37° C., 5% CO2, and a relative humidity of 90%. The medium was changed every other day. After fusion of the cells growing for 1-2 days, the cells were digested with 0.25% trypsin-EDTA (0.2%) mixed digestion solution at 37° C., and were sub-cultured at a certain ratio. The cells for use in experiment were those passaged for 40-60 generations.
(§3) When the cell fusion degree reached 80%, the cells were digested and then suspended in complete medium, and seeded to Millicell plate at 1×10^6 cells·mL^−1. The medium was changed every other day, and 1 week later, the medium was changed every day. After culturing for 5 days, the resistance value reached a constant value (>200 Ω·cm^2), and the cells could be used in the transport experiment.
(§4) After washing with 37° C. HBSS twice, the cells were incubated in a 37° C. culture incubator, wherein Rho-123 was added to the upper wells, and HBSS was added to the bottom wells. The incubation was carried out in a constant temperature shaker, and the solutions from the bottom wells were collected at each time point (0 min, 30 min, 90 min, 120 min), and stored at −20° C. for further use. The amount of Rho-123 permeated to the bottom well was determined by fluorospectrophotometer, wherein the emission wavelength was […], and the excitation wavelength was 530 nm.
(§5) The permeability from cavity-surface to basal surface: drug-containing HBSS 0.35 mL was add to Apical (AP), and blank HBSS 1.2 mL was added to Basolateral (BL). The Millicell was placed at 37° C. in a shaker under shaking at 50 r·min^−1, 50 μL sample was collected from the bottom well at 0, 30, 90, 120 min, respectively, and the same volume of blank HBSS was supplemented. 3 wells were set for each concentration, and to the sample, an internal standard solution (50 μL) and ethyl acetate (350 μL) were added precisely. The mixture was mixed homogeneously under shaking, and centrifuged at 12000 rmp for 5 min. The supernatant (300 μL) was volatilized to dryness, and re-dissolved in 50 μL acetonitrile. The 10 μL resultant solution was used for determination.
(§6) The permeability from basal surface to cavity surface: the drug is added to Basolateral (BL), and blank HBSS was added to Apical (AP), and the other steps were the same as those of the experiment for determining the permeability from cavity-surface to basal surface.
(§7) The apparent permeability coefficient (Papp) of a drug reflects the ability of the drug to pass through cell monolayer and the drug absorption rate and extent. It can be calculated in accordance with the following equation: […]
(§8) wherein, Q represents the amount of drug permeated in the t period, A represents cell surface area, and represents the area (0.6 cm^2) of supporting film in this model, and C0 represents an initial concentration. The unit of Papp is expressed as cm·s^−1.
(§9) By measurement using LC/MS, the concentration of each sample was quantitated using its standard curve (50 nM-10000 nM).

MDCK-MDR1 cells = experiment: in vitro; conditions: MDCK-MDR1
Excerpt: as §1, §2, §3, §4, §5, §6, §7, §8, §9

[3] = compound 100 pM + NGF 0.15 ng/mL

Row | SMILES | Papp at 120 min (in vitro) [×10⁻⁶ cm/s] | Papp (apparent permeability coefficient) (MDCK-MDR1 cells) [×10⁻⁶ cm/s] | Average score (growth of neurites of chick embryo dorsal root ganglion) ([1]; compound 1 pM + NGF 0.15 ng/mL) | Average score (growth of neurites of chick embryo dorsal root ganglion) [1, 3] | neurotrophic activity increased compared to Compound 6 ([1]; dose 1 pM) [%] | neurotrophic activity increased compared to Compound 6 ([1]; dose 100 pM) [%] | Neurologic deficit score [2] | MDA content [2] [nmol/g] | neurologic deficit score decreased compared to the group administered with Compound 6 [2] | neurologic deficit score decreased compared to the group administered with Compound 5 [2]
1 | CCOC(=O)[C@H](CCc1ccccc1)NC(=O)[C@@H]1CSCCN1S(=O)(=O)c1ccc(C)cc1 [Compound 22, (S)-ethyl-4-phenyl-2((R)-(4-methylphenyl)sulfonyltetrahydro-1,4-thiazin-3-aminoformyl)butyrate] | 40.6 | – | 1.88 | 2.78 | – | – | 3.08 ± 0.40 | 33.27 ± 1.61 | – | about 15%
2 | CCC(C)[C@H](NC(=O)[C@@H]1CSCCN1S(=O)(=O)c1ccc(C)cc1)C(=O)OC(C)(C)C (stereo partly drawn) [Compound 9, (2S,3R)-tert-butyl-3-methyl-2((R)-(4-methylphenyl)sulfonyltetrahydro-1,4-thiazin-3-aminoformyl)valerate] | 12.4 | – | 1.76 | 2.56 | – | – | 2.37 ± 0.31 | 33.29 ± 1.81 | – | about 35%
3 | Cc1ccc(S(=O)(=O)N2CCSC[C@H]2C(=O)N[C@H](C(=O)OCc2ccccc2)C(C)C)cc1 [Compound 11, (S)-benzyl-3-methyl-2((R)-(4-methylphenyl)sulfonyltetrahydro-1,4-thiazin-3-aminoformyl)butyrate] | 15.6 | – | 1.86 | 2.65 | – | – | 3.66 ± 0.31 | 32.57 ± 0.75 | – | –
4 | CCOC(=O)[C@@H](NC(=O)[C@@H]1CSCCN1S(=O)(=O)c1ccc(C)cc1)C(C)C [Compound 13, (S)-ethyl-3-methyl-2((R)-(4-methylphenyl)sulfonyltetrahydro-1,4-thiazin-3-aminoformyl)butyrate] | 18.9 | – | 1.96 | 2.88 | – | – | 2.47 ± 0.40 | 33.90 ± 1.45 | – | ~32%

The next lines start with results.

Row | Papp at 120 min (in vitro) [×10⁻⁶ cm/s] | Papp (apparent permeability coefficient) (MDCK-MDR1 cells) [×10⁻⁶ cm/s] | SMILES | Average score (growth of neurites of chick embryo dorsal root ganglion) ([1]; compound 1 pM + NGF 0.15 ng/mL) | Average score (growth of neurites of chick embryo dorsal root ganglion) [1, 3] | neurotrophic activity increased compared to Compound 6 ([1]; dose 1 pM) [%] | neurotrophic activity increased compared to Compound 6 ([1]; dose 100 pM) [%] | Neurologic deficit score [2] | MDA content [2] [nmol/g] | neurologic deficit score decreased compared to the group administered with Compound 6 [2] | neurologic deficit score decreased compared to the group administered with Compound 5 [2]
5 | 18.8 | – | Cc1ccc(S(=O)(=O)N2CCSC[C@H]2C(=O)N[C@H](Cc2ccccc2)C(=O)OC(C)(C)C)cc1 [Compound 20, (R)-tert-butyl-3-phenyl-2((R)-(4-methylphenyl)sulfonyltetrahydro-1,4-thiazin-3-aminoformyl)propionate] | 2.10 | 3.32 | 25 | 30 | 3.76 ± 0.31 | 34.90 ± 1.65 | – | –
6 | 19.2 | – | CCC(C)[C@H](NC(=O)[C@@H]1CSCCN1S(=O)(=O)c1ccc(C)cc1)C(=O)OC (stereo partly drawn) [Compound 8, (2S,3R)-methyl-3-methyl-2((R)-(4-methylphenyl)sulfonyltetrahydro-1,4-thiazin-3-aminoformyl)valerate] | 1.78 | 2.45 | – | – | 1.77 ± 0.28 | 34.95 ± 1.55 | about 15% | –
7 | – | 39.5 | Cc1ccc(S(=O)(=O)N2CCSC[C@H]2C(=O)N[C@H](CC(C)C)C(=O)OC(C)C)cc1 [Compound 6, (3R)-4-[(4-methylbenzenesulfonyl)]-1,4-thiazin-3-carbonyl-D-leucine isopropyl ester, reference compound] | 1.68 | 2.55 | – | – | 2.08 ± 0.40 | 32.87 ± 0.95 | – | –
8 | – | 8.38 | CCOC(=O)[C@H](CC(C)C)NC(=O)[C@@H]1CSCCN1S(=O)(=O)c1ccc(C)cc1 [Compound 5, (3R)-4-[(4-methylbenzenesulfonyl)]-1,4-thiazin-3-carbonyl-L-leucine ethyl ester, reference compound] | 0.65 | 1.55 | – | – | 3.62 ± 0.31 | 36.09 ± 1.85 | – | –
9 | 40.8 | – | Cc1ccc(S(=O)(=O)N2CCSC[C@H]2C(=O)N[C@@H](C(=O)OC(C)(C)C)C(C)C)cc1 [Compound 15, (R)-tert-butyl-3-methyl-2((R)-(4-methylphenyl)sulfonyltetrahydro-1,4-thiazin-3-aminoformyl)butyrate] | 1.78 | 2.68 | – | – | 1.91 ± 0.28 | 33.77 ± 1.61 | ~8% | –
